Assays:
PC-3-CTR-wt cells = assay: Matrigel in vitro invasion assay; format: cell-based; conditions: 50 nM CT, 48 h
Protocol: Invasion experiments were conducted in Matrigel™ invasion chambers as previously described (Sabbisetti et al., 2005).
CT increases invasiveness, and even induces an invasive phenotype in non-invasive prostate cancer cells. The role of PDZ-binding motif in CT-stimulated invasion was examined. FIG. 2C depicts CTR-C PDZ-binding motif mutation and effects on cell invasion. PC-3V, PC-3 CTRwt and PC-3 CTRΔESS cells were added to upper insert of invasion chambers with or without 50 nM CT, and cells that passed through the Matrigel™ barrier were counted after 48 h. The results are expressed as mean number of invaded cells per 400× field ±SEM (n=6; *p<0.05 (PC-3V v PC-3CTR-wt); $ p<0.05 (PC-3CTR-wt v PC-3CTRΔESS); $$-p<0.05 (PC-3CTRwt+CT v PC-3CTRΔESS+CT) (one-way ANOVA and Newman-Keul's test)). Expression of CTRwt in PC-3 cells increased invasion by 2.5-fold (FIG. 2C).
As shown above, CTR binds to ZO-1 through PDZ interaction (i.e. PDZ ligand on C-tail of CTR binds to the PDZ domain of ZO-1). To attenuate this binding, ZO-1 was saturated with a small C-terminal peptide of CTR sequence containing the PDZ-binding motif. Since ZO-1 is an intracellular membrane protein, the interfering peptide was delivered inside the plasma membrane. It has been shown that trans-activating transcriptional activator (TAT) protein (86-mer polypeptide) from HIV-1 enters mammalian cells when added to the surrounding media (Frankel et al., 1988; Green et al., 1989). Certain small regions of such proteins (10-16-mers) called protein transduction domains (PTDs), also efficiently traverse biological membranes (Elliott et al., 1997). Therefore, a fusion peptide Pep 1 was synthesized of TAT-peptide sequences of HIV virus and CTR-C(N-[…]-C (SEQ ID NO:2), CTR-C sequence underlined). The first experiment was to see if Pep I binds to ZO-1 in reversible fashion. For this, amino acid Y in Pep I was labeled with ^125I, and the binding with ZO-1 analyzed in the presence/absence of unlabeled Pep I (1000×; 20 μM). PC-3CTR-ZO-1-MYC cells were first incubated with unlabeled Pep I or control peptide (20 μM) for 5 min. The cells were then incubated with ^125I-pep I or C for 25 min. The cells were then washed in IP buffer, treated with DSP, and lysed. ZO-1 IPs were obtained, fractionated on SDS-PAGE, and autoradiographed. […] Next, whether Pep I competes with CTR for ZO-1 binding was tested. For this, PC-3-CTR-wt cells were treated with CT (50 nM) and or Pep I (50 μM) for 15 min. The CTR IPs were then immunoblotted and probed for ZO-1 immunoreactivity. […] Next, the biological impact of this phenomenon was examined by testing the effect of Pep I on CTR-stimulated invasion.
The binding of ZO-1 and CTR can be attenuated by saturating ZO-1 with a small C-terminal peptide of CTR sequence containing the PDZ ligand. Since ZO-1 is an intracellular membrane protein, the interfering peptide must penetrate plasma membrane to interact with ZO-1. As discussed above, fusion peptides of small TAT peptides (12-mer) and six (Pep I) or eight amino acids (Pep II) of C-terminal of CTR were synthesized. Control peptides were TAT peptides (12-mer) containing random amino acid sequence of equivalent size (6-mer). […] Thus, these two peptides (sequences given below) could be used therapeutically to attenuate or inhibit metastasis in cancerous cells.

[1] = system: TCF/LEF promoter activity in PC-3 cells; assay: TCF/LEF luciferase reporter assay (pGL3-OT/pGL3-OF); format: cell-based; conditions: 50 nM CT
Protocol: FIG. 28 depicts effect of CT on TCF/LEF promoter activity in PC-3 cells with various compounds added with CT. Cells were seeded into 6-well plates and transfected with the pGL3-OT luciferase/pRL-tK plasmids or pGL3-OF-luciferase/pRL-TK plasmids. The cells were then incubated in complete medium for 48 h, after which they were serum-starved for 16 h. The cells were then treated with CT and/or PMH compounds, and the cell lysates analyzed for luciferase activity. The results are expressed as relative light units (RLU) after normalization with Renilla luciferase activity. The experiment was repeated three separate times, and results expressed as means±S.E.M.
Certain hydantoin-like molecules isolated from sea sponge have been identified that could inhibit prostate cell metastasis (Shah et al., 2009; Mudit et al., 2011). Disruption of junctional complex stabilizes intracellular β-catenin, leading to its translocation in the nucleus, where it can bind to its partner LEF-1 (lymphocyte enhancer binding factor-1) to transactivate target genes. The transcription of TCF/LEF genes can be quantitated by using luciferase-based reporter plasmids, pGL3-OT and pGL3-OF, the improved version of the Topflash and Fopflash vectors (Shah et al., 2009). This assay can be used to comparatively evaluate junction disrupting activity of multiple compounds in a single assay. […] The two compounds, MRM-6 and MRM-4, derivatives of PMH whose structures are shown below, were obtained from Dr. K. A. El Sayed.

With calcitonin [CT] the “additional increase in invasion” value (PC-3-CTR-wt cells) was 2.5 fold and the “increase in luciferase activity (RLU)” value [1] was “over 50 fold”.

From US9765115B2, “Inhibitors of metastasis, methods of generating such inhibitors and their therapeutic applications” (Board of Supervisors of Louisiana State University acting …, priority 2011, dated 2017)
